The subject of one assay is JIMT-1 cells. Put plainly: Cell viability of KIF18a-sensitive cell lines, JIMT-1 (Cell Titre-Glo, 7 days). The assay is classed as cell-based. The note with it: Homo sapiens, read-out: JIMT-1 IC50. The procedure:
(§1) Cell lines were seeded as follows 24 hours before compound treatment: HCC15 (Korean Cell Line Bank) 600 cell/well, 95 μL of RPMI-1640 media supplemented with 100 units/mL penicillin, 100 units/mL streptomycin and 10% FBS; NIH:OVCAR-3 (ATCC), 1000 cell/well, 95 μL of RPMI-1640 media supplemented with 100 units/mL penicillin, 100 units/mL streptomycin, 0.01 mg/mL bovine insulin, and 20% FBS; JIMT-1 (Addexbio) 1000 cell/well, 95 μL of DMEM media supplemented with 100 units/mL penicillin, 100 units/mL streptomycin, and 10% FBS.
(§2) Test compounds were added to cells in a 20× dilution scheme by adding 5 μL of serially diluted compound to the plate, and the treated cells were incubated for an additional 7 days in a 37° C., 5% CO2 incubator. DMSO was used as the negative control (0% effect), and wells omitting cells were used as the positive control (100% effect). The cells were incubated for seven days, and cell viability determined via the Promega Cell Titre-Glo® Assay kit. Luminescence units were converted to ATP concentrations via an ATP standard curve (10 point, 2-fold dilution from 5 uM). % Inhibition was calculated for each well as: ([max−min]−[test−min])/[max−min]. IC50 values were calculated from concentration vs. % Inhibition data via a four-parameter variable slope model.

The next assay concerns the target hKIF18A (1-374) (Homo sapiens (Human), UniProt Q8NI77). The assay is described as follows: Inhibition of KIF18A microtubule-dependent ATPase activity (ADP-Glo). The format is biochemical. The note with it: 4 nM hKIF18A (1-374). The essentials:
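Reaction was started with pre-formed microtubules and ATP (0.2 mg/mL and 2.0 mM in the added mix) and run 60 min at 28 °C. ADP was read by ADP-Glo luminescence, and IC50 came from a four-parameter fit of % inhibition.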

Another assay concerns NIH:OVCAR-3 cells. Put plainly: Cell viability of KIF18a-sensitive cell lines, NIH:OVCAR-3 (Cell Titre-Glo, 7 days). The format is cell-based. The note with it: Homo sapiens, OVCAR-3, 168 h, read-out: NIH:OVCAR3 IC50. The procedure:
as §1, §2

A further assay concerns HCC15 cells. The assay is described as follows: Cell viability of KIF18a-sensitive cell lines, HCC15 (Cell Titre-Glo, 7 days). The note with it: read-out: HCC15 IC50. The format is cell-based. The procedure:
as §1, §2

Assay [1] has as its target KIF18a-microtubule complex (Homo sapiens (Human), UniProt Q8NI77). Put plainly: Binding kinetics to KIF18a-microtubule complex (global progress curve analysis). The note with it: for kon (on-rate from binding kinetics assay) / koff: KIF18A 0.25 nM, up to 24 hr; for koff: read-out: koff (off-rate from binding kinetics assay) (converted); for Ki: koff/kon, read-out: KI (determined from binding kinetic assay koff/kon). The protocol: Compound binding kinetics parameters (kon and koff) were determined by the method of global progress curve analysis (GPCA). […] ADP product levels were determined by the Promega® ADP-Glo assay.

The structures appear in SMILES notation. Where two headings read alike, the source gives them in different places.

What is called IC50 is the concentration needed to halve the response being measured. As a reminder, the koff is the first-order rate constant of dissociation.

Chain of KIF18a-microtubule complex (Q8NI77 1-374, one chain of several): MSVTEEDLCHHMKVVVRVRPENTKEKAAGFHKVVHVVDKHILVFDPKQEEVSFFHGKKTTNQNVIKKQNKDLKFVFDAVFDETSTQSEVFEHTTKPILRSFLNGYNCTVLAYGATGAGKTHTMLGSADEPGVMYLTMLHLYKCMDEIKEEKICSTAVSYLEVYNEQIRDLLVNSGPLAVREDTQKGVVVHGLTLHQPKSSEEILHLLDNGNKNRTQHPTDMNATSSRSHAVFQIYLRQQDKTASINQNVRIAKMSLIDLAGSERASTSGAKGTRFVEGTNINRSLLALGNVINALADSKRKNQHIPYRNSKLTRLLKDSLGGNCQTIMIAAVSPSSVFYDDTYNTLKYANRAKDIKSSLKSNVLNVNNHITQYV
Chain of hKIF18A (1-374) (Q8NI77 1-374): as the sequence (Q8NI77 1-374, one chain of several) above

Regarding `Cc1cc(-c2cn(-c3ccc(NS(=O)(=O)CCO)cc3N3CCC4(CC3)CC4)nn2)nc(N2CC3C(C2)C3(F)F)n1` (stereo not drawn) [Compound 73, N-(4-(4-(2-(6,6-difluoro-3-azabicyclo[3.1.0]hexan-3-yl)-6-methylpyrimidin-4-yl)-1H-1,2,3-triazol-1-yl)-3-(6-azaspiro[2.5]octan-6-yl)phenyl)-2-hydroxyethane-1-sulfonamide], the IC50 in the assay with JIMT-1 cells (168 h, JIMT-1, 7 days) worked out at 42 nM; on hKIF18A (1-374) it was 11 nM; in the assay with NIH:OVCAR-3 cells (NIH:OVCAR3, 7 days), 14 nM; with HCC15 cells (168 h, HCC15, 7 days), 10 nM.
Consider `O=S(=O)(CCO)Nc1ccc(-c2cn(-c3cccc(N4CCC(F)(F)CC4)n3)nn2)c(N2CCC3(CC2)CC3)c1` [Compound 71, N-(4-(1-(6-(4,4-difluoropiperidin-1-yl)pyridin-2-yl)-1H-1,2,3-triazol-4-yl)-3-(6-azaspiro[2.5]octan-6-yl)phenyl)-2-hydroxyethane-1-sulfonamide], for which the IC50 worked out at 20 nM in the assay on JIMT-1 cells (168 h, JIMT-1, 7 days); 10 nM at hKIF18A (1-374); 13 nM in the assay with NIH:OVCAR-3 cells (NIH:OVCAR3, 7 days); 12 nM with HCC15 cells (168 h, HCC15, 7 days).
For `Cc1cc(-c2cn(-c3ccc(NS(=O)(=O)CCO)cc3N3CCC4(CC3)CC4)nn2)nc(N2CCCCC2)n1` [Compound 101, 2-hydroxy-N-(4-(4-(6-methyl-2-(piperidin-1-yl)pyrimidin-4-yl)-1H-1,2,3-triazol-1-yl)-3-(6-azaspiro[2.5]octan-6-yl)phenyl)ethane-1-sulfonamide] the same measures were 27 nM, 17 nM, 27 nM and 16 nM.
For `CS(=O)(=O)Nc1ccc(-n2cc(-c3cccc(S(=O)(=O)N4CC(F)(F)C4)c3)nn2)c(N2CCC3(CC2)CC3)c1` [Compound 13, N-(4-(4-(3-((3,3-difluoroazetidin-1-yl)sulfonyl)phenyl)-1H-1,2,3-triazol-1-yl)-3-(6-azaspiro[2.5]octan-6-yl)phenyl)methanesulfonamide] the same measures were 4.7 nM, 7.2 nM, 4.5 nM and 3 nM.
`Cc1cc(-c2cn(-c3ccc(NS(=O)(=O)CCO)cc3N3CCC4(CC3)CC4)nn2)nc(N2CCC(F)(F)CC2)c1` [Compound 72, N-(4-(4-(6-(4,4-difluoropiperidin-1-yl)-4-methylpyridin-2-yl)-1H-1,2,3-triazol-1-yl)-3-(6-azaspiro[2.5]octan-6-yl)phenyl)-2-hydroxyethane-1-sulfonamide]: the half-inhibitory concentration (IC50) with JIMT-1 cells (168 h, JIMT-1, 7 days) is 24 nM; in the assay with NIH:OVCAR-3 cells (NIH:OVCAR3, 7 days), 25 nM; in the assay on HCC15 cells (168 h, HCC15, 7 days), 16 nM.
With `Cc1cc(-c2cn(-c3ccc(NS(=O)(=O)CCO)cc3N3CCCCC3)nn2)nc(N2CC(F)(F)C2)c1` [Compound 70, N-(4-(4-(6-(3,3-difluoroazetidin-1-yl)-4-methylpyridin-2-yl)-1H-1,2,3-triazol-1-yl)-3-(piperidin-1-yl)phenyl)-2-hydroxyethane-1-sulfonamide], inhibition against hKIF18A (1-374) was half-maximal at 27 nM (IC50). In assay [1], the “kon (on-rate from binding kinetics assay)” value (shortened to “kon”) was 2500 M⁻¹ s⁻¹, the koff is 3.61e-05 s⁻¹, the Ki is 15 nM and the “disc. t1/2 (dissociation half-life ln(2)/koff)” value is recorded as 5.4 h.
Consider `CS(=O)(=O)Nc1ccc(-c2nnc(-c3cccc(N4CCC(F)(F)CC4)n3)[nH]2)c(N2CCC3(CC2)CC3)c1` [Compound 5, N-(4-(5-(6-(4,4-difluoropiperidin-1-yl)pyridin-2-yl)-1H-1,2,4-triazol-3-yl)-3-(6-azaspiro[2.5]octan-6-yl)phenyl)methanesulfonamide], for which it took 6.6 nM to reach half-maximal inhibition at hKIF18A (1-374) (IC50). Also, in assay [1], the “kon” value was 16900 M⁻¹ s⁻¹, the koff was 2.53e-05 s⁻¹, the Ki turned out to be 1.5 nM and the “disc. t1/2 (dissociation half-life ln(2)/koff)” value stood at 7.6 h.
Turning to `Cc1cc(NC(=O)c2ccc(NS(=O)(=O)CCO)cc2N2CCC3(CC2)CC3)nc(N2CCC(F)(F)CC2)n1` [AMG650, 2-(6-azaspiro[2.5]octan-6-yl)-N-[2-(4,4-difluoropiperidin-1-yl)-6-methylpyrimidin-4-yl]-4-(2-hydroxyethanesulfonamido)benzamide, reference compound], the IC50 in the assay on JIMT-1 cells (JIMT-1, 168 h) was 130 nM; in the assay with NIH:OVCAR-3 cells, 100 nM; in the assay on HCC15 cells (HCC15, 168 h) it was 66 nM.
As to `CS(=O)(=O)Nc1ccc(-c2nnc(-c3cccc(N4CCOCC4)n3)[nH]2)c(N2CCC3(CC2)CC3)c1` [Compound 2, N-(4-(5-(6-morpholinopyridin-2-yl)-4H-1,2,4-triazol-3-yl)-3-(6-azaspiro[2.5]octan-6-yl)phenyl)methanesulfonamide], in the assay on JIMT-1 cells (168 h, JIMT-1, 7 days), the 50% inhibitory concentration (IC50) was found to be 480 nM. Further, the IC50 against hKIF18A (1-374) is 14 nM. Moreover, in assay [1], the “kon” value stood at 3890 M⁻¹ s⁻¹, the koff is 3.61e-05 s⁻¹, the Ki was found to be 8.9 nM and the “disc. t1/2 (dissociation half-life ln(2)/koff)” value came out at 5.5 h. Moreover, the IC50 with HCC15 cells (168 h, HCC15, 7 days) worked out at 130 nM.
For the molecule `CS(=O)(=O)Nc1ccc(-n2cc(-c3cccc(N4CCC(F)(F)CC4)n3)nn2)c(N2CCC3(CC2)CC3)n1` [Compound 46, N-(5-(4-(6-(4,4-difluoropiperidin-1-yl)pyridin-2-yl)-1H-1,2,3-triazol-1-yl)-6-(6-azaspiro[2.5]octan-6-yl)pyridin-2-yl)methanesulfonamide], the IC50 on hKIF18A (1-374) is 9.1 nM.
Same read-out and setting: for `O=S(=O)(CCO)Nc1ccc(-n2cc(-c3cc(CO)nc(N4CCC(F)(F)CC4)n3)nn2)c(N2CCC3(CC2)CC3)c1` [Compound 160, N-(4-(4-(2-(4,4-difluoropiperidin-1-yl)-6-(hydroxymethyl)pyrimidin-4-yl)-1H-1,2,3-triazol-1-yl)-3-(6-azaspiro[2.5]octan-6-yl)phenyl)-2-hydroxyethane-1-sulfonamide] the value was 4.4 nM.
For `CCS(=O)(=O)Nc1ccc(-n2cc(-c3cnc(C)c(N4CCC(F)(F)CC4)n3)nn2)c(N2CCC3(CC2)CC3)c1` [Compound 145, N-(4-(4-(6-(4,4-difluoropiperidin-1-yl)-5-methylpyrazin-2-yl)-1H-1,2,3-triazol-1-yl)-3-(6-azaspiro[2.5]octan-6-yl)phenyl)ethanesulfonamide], 17 nM corresponded to half-maximal inhibition on hKIF18A (1-374) (IC50).
With `CS(=O)(=O)Nc1ccc(-n2cc(-c3cccc(N4CC5(CCO5)C4)n3)nn2)c(N2CCC3(CC2)CC3)c1` [Compound 58, N-(4-(4-(6-(1-oxa-6-azaspiro[3.3]heptan-6-yl)pyridin-2-yl)-1H-1,2,3-triazol-1-yl)-3-(6-azaspiro[2.5]octan-6-yl)phenyl)methanesulfonamide], on hKIF18A (1-374), inhibition was half-maximal at 41 nM (IC50).
In turn, `O=S(=O)(CCO)Nc1ccc(-n2cc(-c3ccn(C4CCCC4)n3)nn2)c(N2CCC3(CC2)CC3)c1` [Compound 83, N-(4-(4-(1-cyclopentyl-1H-pyrazol-3-yl)-1H-1,2,3-triazol-1-yl)-3-(6-azaspiro[2.5]octan-6-yl)phenyl)-2-hydroxyethane-1-sulfonamide] yielded an IC50 against hKIF18A (1-374) of 10 nM.
On hKIF18A (1-374), `Cc1cc(-c2cn(-c3ccc(NS(C)(=O)=O)cc3N3CCC4(CC3)CC4)nn2)nc(N2CCC(F)(F)CC2)c1` [Compound 14, N-(4-(4-(6-(4,4-difluoropiperidin-1-yl)-4-methylpyridin-2-yl)-1H-1,2,3-triazol-1-yl)-3-(6-azaspiro[2.5]octan-6-yl)phenyl)methanesulfonamide] yielded an IC50 of 39 nM.
Still for that read-out and setting: for `CS(=O)(=O)Nc1ccc(-c2noc(-c3cccc(N4CCOCC4)n3)n2)c(N2CCC3(CC2)CC3)c1` [Compound 164, N-(4-(5-(6-morpholinopyridin-2-yl)-1,2,4-oxadiazol-3-yl)-3-(6-azaspiro[2.5]octan-6-yl)phenyl)methanesulfonamide] the value was more than 30000 nM; for `O=S(=O)(CCO)Nc1ccc(-n2cc(-c3nc(C4=CCC(F)(F)CC4)ccc3F)nn2)c(N2CCC3(CC2)CC3)c1` [Compound 159, N-(4-(4-(6-(4,4-difluorocyclohex-1-en-1-yl)-3-fluoropyridin-2-yl)-1H-1,2,3-triazol-1-yl)-3-(6-azaspiro[2.5]octan-6-yl)phenyl)-2-hydroxyethane-1-sulfonamide], 14 nM.
In the case of `O=S(=O)(CCO)Nc1ccc(-n2cc(-c3ccc(C4=CCCC4)o3)nn2)c(N2CCC3(CC2)CC3)c1` [Compound 125, N-(4-(4-(5-(cyclopent-1-en-1-yl)furan-2-yl)-1H-1,2,3-triazol-1-yl)-3-(6-azaspiro[2.5]octan-6-yl)phenyl)-2-hydroxyethane-1-sulfonamide], the IC50 on hKIF18A (1-374) came out at 9 nM.

Source of the values: patent publication US20230382889A1 (Volastra Therapeutics, Inc., priority 2022, published 2023).
